Laboratory results taken from US11066396B2 (priority 2016, dated 2021).

Columns and labels:
[1] = target: HDAC1 (Homo sapiens (Human), UniProt Q13547); settings: read-out: HDAC1 IC50
[2] = target: HDAC8 (Homo sapiens (Human), UniProt Q9BY41); settings: read-out: HDAC8 IC50
Sequence of HDAC8 (Q9BY41 whole entry): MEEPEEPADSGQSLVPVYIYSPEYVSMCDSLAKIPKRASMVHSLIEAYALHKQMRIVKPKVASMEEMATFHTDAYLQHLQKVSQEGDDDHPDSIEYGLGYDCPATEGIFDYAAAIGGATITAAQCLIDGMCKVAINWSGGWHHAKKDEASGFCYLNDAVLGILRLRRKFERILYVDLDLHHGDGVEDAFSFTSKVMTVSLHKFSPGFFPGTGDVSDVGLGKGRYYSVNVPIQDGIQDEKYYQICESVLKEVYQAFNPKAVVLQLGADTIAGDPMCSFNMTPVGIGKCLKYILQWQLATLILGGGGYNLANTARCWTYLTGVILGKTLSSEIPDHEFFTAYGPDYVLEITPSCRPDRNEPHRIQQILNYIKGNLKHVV

Sequence of HDAC1 (Q13547 whole entry): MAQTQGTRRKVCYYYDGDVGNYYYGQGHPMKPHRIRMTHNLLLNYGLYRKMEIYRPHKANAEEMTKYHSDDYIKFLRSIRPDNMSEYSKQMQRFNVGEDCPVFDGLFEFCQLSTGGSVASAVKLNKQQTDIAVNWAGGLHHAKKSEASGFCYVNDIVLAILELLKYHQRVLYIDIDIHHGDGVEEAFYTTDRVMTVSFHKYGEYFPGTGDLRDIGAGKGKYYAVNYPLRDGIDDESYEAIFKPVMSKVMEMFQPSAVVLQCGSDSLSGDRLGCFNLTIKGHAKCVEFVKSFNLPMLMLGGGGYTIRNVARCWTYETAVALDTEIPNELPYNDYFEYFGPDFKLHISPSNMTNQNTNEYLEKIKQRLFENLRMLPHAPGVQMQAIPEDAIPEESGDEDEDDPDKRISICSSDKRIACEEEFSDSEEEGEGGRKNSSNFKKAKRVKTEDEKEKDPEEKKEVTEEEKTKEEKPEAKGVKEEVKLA

SMILES | IC50 [1] | IC50 [2]
O=C(C1CCN(C2CC2)CC1)N(Cc1ccc(-c2noc(C(F)(F)F)n2)cn1)c1cccc(F)c1 [Example 406, 1-cyclopropyl-N-(3-fluorophenyl)-N-({5-[5-(trifluoromethyl)-1,2,4-oxadiazol-3-yl]pyridin-2-yl}methyl)piperidine-4-carboxamide] | 270 nM | 1800 nM
Cc1noc([C@@H]2CCC(=O)N2c2ccc(-c3noc(C(F)(F)F)n3)cc2F)n1 [Example 123, (S)-1-(2-fluoro-4-(5-(trifluoromethyl)-1,2,4-oxadiazol-3-yl)phenyl)-5-(3-methyl-1,2,4-oxadiazol-5-yl)pyrrolidin-2-one] | 1000 nM | 5200 nM
O=C(CC1CCS(=O)(=O)C1)N(Cc1ccc(-c2noc(C(F)(F)F)n2)cn1)c1cccc(F)c1 (racemic) [Example 398, 2-(1,1-dioxidotetrahydrothiophen-3-yl)-N-(3-fluorophenyl)-N-({5-[5-(trifluoromethyl)-1,2,4-oxadiazol-3-yl]pyridin-2-yl}methyl)acetamide] | 410 nM | 2300 nM
O=C(Cn1cnc2ccccc21)N(Cc1ccc(-c2noc(C(F)(F)F)n2)cc1)c1cccc(C(F)(F)F)c1 [Example 98, 2-(1H-benzo[d]imidazol-1-yl)-N-(4-(5-(trifluoromethyl)-1,2,4-oxadiazol-3-yl)benzyl)-N-(3-(trifluoromethyl)phenyl)acetamide] | 4200 nM | 2300 nM
CN1CCC(C(=O)N(Cc2ccc(-c3noc(C(F)(F)F)n3)cn2)c2cccc(F)c2)C1 (racemic) [Example 403, N-(3-fluorophenyl)-1-methyl-N-({5-[5-(trifluoromethyl)-1,2,4-oxadiazol-3-yl]pyridin-2-yl}methyl)pyrrolidine-3-carboxamide] | 250 nM | 2000 nM
O=C(N1CCOCC1)N(Cc1ccc(-c2noc(C(F)(F)F)n2)cc1)c1cccc(C(F)(F)F)c1 [Example 32, N-(4-(5-(Trifluoromethyl)-1,2,4-oxadiazol-3-yl)benzyl)-N-(3-(trifluoromethyl)phenyl)morpholine-4-carboxamide] | 440 nM | 2300 nM
Cc1nc(COc2cc(-c3noc(C(F)(F)F)n3)ccn2)no1 [Example 225, 2-[(5-methyl-1,2,4-oxadiazol-3-yl)methoxy]-4-[5-(trifluoromethyl)-1,2,4-oxadiazol-3-yl]pyridine] | 1500 nM | 620 nM
CC(=O)NCCC(=O)N(Cc1ccc(-c2noc(C(F)(F)F)n2)cc1)c1cccc(C(F)(F)F)c1 [Example 78, 3-acetamido-N-(4-(5-(trifluoromethyl)-1,2,4-oxadiazol-3-yl)benzyl)-N-(3-(trifluoromethyl)phenyl)propanamide] | 890 nM | 2300 nM
O=C1CCC(c2ccccc2)N1c1ncc(-c2noc(C(F)(F)F)n2)cc1F (stereo not shown) [Example 5, 1-(3-Fluoro-5-(5-(trifluoromethyl)-1,2,4-oxadiazol-3-yl)pyridin-2-yl)-5-phenylpyrrolidin-2-one] | 2300 nM | 13000 nM
C[Si]1(C)CCC(NCc2ccc(-c3noc(C(F)(F)F)n3)cn2)CC1 [Example 436, 1,1-dimethyl-N-({5-[5-(trifluoromethyl)-1,2,4-oxadiazol-3-yl]pyridin-2-yl}methyl)silinan-4-amine] | 1200 nM | 4200 nM
Cc1ccc(NCc2ccc(-c3noc(C(F)(F)F)n3)cn2)cn1 [Example 359, 6-methyl-N-({5-[5-(trifluoromethyl)-1,2,4-oxadiazol-3-yl]pyridin-2-yl}methyl)pyridin-3-amine] | 430 nM | 1800 nM
Cc1nc2ccc(F)cc2n1Cc1ccc(-c2noc(C(F)(F)F)n2)cc1F [Example 99, 3-(3-fluoro-4-((6-fluoro-2-methyl-1H-benzo[d]imidazol-1-yl)methyl)phenyl)-5-(trifluoromethyl)-1,2,4-oxadiazole] | 1900 nM | 5900 nM
Cc1nc(C)n(CC(=O)N(Cc2ccc(-c3noc(C(F)(F)F)n3)cc2)c2cccc(C(F)(F)F)c2)n1 [Example 77, 2-(3,5-dimethyl-1H-1,2,4-triazol-1-yl)-N-(4-(5-(trifluoromethyl)-1,2,4-oxadiazol-3-yl)benzyl)-N-(3-(trifluoromethyl)phenyl)acetamide] | 1400 nM | 3300 nM
CC1(C)CC(C(=O)N(Cc2ccc(-c3noc(C(F)(F)F)n3)cn2)c2cccc(F)c2)CCO1 (racemic) [Example 63, N-(3-fluorophenyl)-2,2-dimethyl-N-((5-(5-(trifluoromethyl)-1,2,4-oxadiazol-3-yl)pyridin-2-yl)methyl)tetrahydro-2H-pyran-4-carboxamide] | 260 nM | 1500 nM
FC(F)(F)c1nc(-c2ccc(CNc3ccc4ccncc4c3)nc2)no1 [Example 370, N-({5-[5-(trifluoromethyl)-1,2,4-oxadiazol-3-yl]pyridin-2-yl}methyl)isoquinolin-7-amine] | 68 nM | 860 nM
COCc1cc(=O)n(Cc2ccc(-c3noc(C(F)(F)F)n3)cn2)c2ccccc12 [Example 420, 4-(methoxymethyl)-1-({5-[5-(trifluoromethyl)-1,2,4-oxadiazol-3-yl]pyridin-2-yl}methyl)quinolin-2(1H)-one] | 110 nM | 1000 nM

SMILES | IC50 [1] | IC50 [2]
Cc1noc([C@H]2CCCCN2c2cc(F)c(-c3noc(C(F)(F)F)n3)cc2F)n1 [Example 121, (R)-3-(2,5-difluoro-4-(2-(3-methyl-1,2,4-oxadiazol-5-yl)piperidin-1-yl)phenyl)-5-(trifluoromethyl)-1,2,4-oxadiazole] | 26000 nM | 29000 nM
O=C(NC1CC1)c1ccccc1NCc1ccc(-c2noc(C(F)(F)F)n2)cn1 [Example 446, N-cyclopropyl-2-[({5-[5-(trifluoromethyl)-1,2,4-oxadiazol-3-yl]pyridin-2-yl}methyl)amino]benzamide] | 240 nM | 1600 nM
O=C1COC[C@@H](c2nc(-c3ccccn3)no2)N1c1ccc(-c2noc(C(F)(F)F)n2)cc1 [Example 34, (S)-5-(3-(Pyridin-2-yl)-1,2,4-oxadiazol-5-yl)-4-(4-(5-(trifluoromethyl)-1,2,4-oxadiazol-3-yl)phenyl)morpholin-3-one] | 64 nM | 280 nM
FC(F)(F)c1nc(-c2cnc(COc3ccc4ccccc4n3)nc2)no1 [Example 473, 2-({5-[5-(trifluoromethyl)-1,2,4-oxadiazol-3-yl]pyrimidin-2-yl}methoxy)quinoline] | 160 nM | 45000 nM
FC(F)(F)c1nc(-c2ccc(CNC3Cc4ccccc4C3)nc2)no1 [Example 378, N-({5-[5-(trifluoromethyl)-1,2,4-oxadiazol-3-yl]pyridin-2-yl}methyl)-2,3-dihydro-1H-inden-2-amine] | 630 nM | 4200 nM
CN1CCN(c2ccc(-c3noc(C(F)(F)F)n3)cn2)[C@@H](c2ccccc2)C1 [Example 134, (S)-3-(6-(4-methyl-2-phenylpiperazin-1-yl)pyridin-3-yl)-5-(trifluoromethyl)-1,2,4-oxadiazole] | 360 nM | 2100 nM
CC(C)(C)OC(=O)[C@@H]1CCC(=O)N1c1ccc(-c2noc(C(F)(F)F)n2)cc1F [Example 125, tert-butyl (S)-1-(2-fluoro-4-(5-(trifluoromethyl)-1,2,4-oxadiazol-3-yl)phenyl)-5-oxopyrrolidine-2-carboxylate] | 430 nM | 6200 nM
FC(COc1cc(-c2noc(C(F)(F)F)n2)ccn1)CN1CCOCC1 (racemic) [Example 427, 4-[2-fluoro-3-({4-[5-(trifluoromethyl)-1,2,4-oxadiazol-3-yl]pyridin-2-yl}oxy)propyl]morpholine] | 5100 nM | 1000 nM
Fc1cc(COc2nc[nH]n2)ccc1-c1noc(C(F)(F)F)n1 [Example 247, 3-(2-fluoro-4-{[(1H-1,2,4-triazol-3-yl)oxy]methyl}phenyl)-5-(trifluoromethyl)-1,2,4-oxadiazole] | 5500 nM | 1400 nM
Cc1ncc(C(=O)N(Cc2ccc(-c3noc(C(F)(F)F)n3)cn2)c2cccc(F)c2)cn1 [Example 401, N-(3-fluorophenyl)-2-methyl-N-({5-[5-(trifluoromethyl)-1,2,4-oxadiazol-3-yl]pyridin-2-yl}methyl)pyrimidine-5-carboxamide] | 290 nM | 3300 nM
OCc1ccnc(NCc2ccc(-c3noc(C(F)(F)F)n3)cc2)n1 [Example 418, [2-({4-[5-(trifluoromethyl)-1,2,4-oxadiazol-3-yl]benzyl}amino)pyrimidin-4-yl]methanol] | 3600 nM | 3200 nM
O=C(NCc1ccccn1)c1cccc(NCc2ccc(-c3noc(C(F)(F)F)n3)cn2)c1 [Example 441, N-(pyridin-2-ylmethyl)-3-[({5-[5-(trifluoromethyl)-1,2,4-oxadiazol-3-yl]pyridin-2-yl}methyl)amino]benzamide] | 490 nM | 740 nM
Cn1c(OCc2ccc(-c3noc(C(F)(F)F)n3)c(F)c2)nc2ccccc21 [Example 235, 2-({3-fluoro-4-[5-(trifluoromethyl)-1,2,4-oxadiazol-3-yl]phenyl}methoxy)-1-methyl-1H-benzimidazole] | 520 nM | 770 nM
CC(C(=O)N(Cc1ccc(-c2noc(C(F)(F)F)n2)cn1)c1cccc(F)c1)n1cccn1 (racemic) [Example 389, N-(3-fluorophenyl)-2-(1H-pyrazol-1-yl)-N-({5-[5-(trifluoromethyl)-1,2,4-oxadiazol-3-yl]pyridin-2-yl}methyl)propanamide] | 300 nM | 1600 nM
O=C([C@@H]1CCC(=O)N1c1cc(F)c(-c2noc(C(F)(F)F)n2)cc1F)N1CCCC1 [Example 336, (5S)-1-{2,5-difluoro-4-[5-(trifluoromethyl)-1,2,4-oxadiazol-3-yl]phenyl}-5-(pyrrolidin-1-ylcarbonyl)pyrrolidin-2-one] | 10000 nM | 26000 nM
O=C1COC[C@@H](CNCc2ccc(-c3noc(C(F)(F)F)n3)cn2)N1 [Example 450, (5R)-5-{[({5-[5-(trifluoromethyl)-1,2,4-oxadiazol-3-yl]pyridin-2-yl}methyl)amino]methyl}morpholin-3-one] | 2800 nM | 2800 nM
